From patent US10738057B2, “Tertiary alcohols as PI3K-γ inhibitors” (Incyte Corporation, priority 2017, dated 2020)
Structures can show the parent of a compound that is named as a salt. Where two headings read alike, the source gives them in different places.

Key:
[1] = tested on: Phosphorylated Ribosomal Protein S6 (RPS6) in THP-1 cells; experiment: THP-1 RPS6 ELISA assay; format: cell-based, Human; conditions: serum starved, 2 h compound, 10 nM MCP-1 for 15 min, phospho-RPS6 ELISA, read-out: PI3Kγ_THP1_RPS6_ELISA IC50
Outline: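 Serum-starved THP-1 cells (2×10^5/well, RPMI) preincubated with compound 2 h at 37° C, then stimulated with 10 nM MCP-1 for 15 min. Lysates assayed by phospho-RPS6 ELISA, absorbance 450 nm (540 nm correction); IC50 from percent inhibition versus log concentration.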

[2] = target: PI3Kγ (p110γ) Recombinant Human Protein (Homo sapiens (Human), UniProt P48736); experiment: PI3K-γ scintillation proximity assay; format: biochemical; conditions: 20 μM PIP2, 2 μM ATP, 13 nM PI3Kγ, 120 min, room temperature
Sequence of PI3Kγ (p110γ) Recombinant Human Protein (P48736 whole entry): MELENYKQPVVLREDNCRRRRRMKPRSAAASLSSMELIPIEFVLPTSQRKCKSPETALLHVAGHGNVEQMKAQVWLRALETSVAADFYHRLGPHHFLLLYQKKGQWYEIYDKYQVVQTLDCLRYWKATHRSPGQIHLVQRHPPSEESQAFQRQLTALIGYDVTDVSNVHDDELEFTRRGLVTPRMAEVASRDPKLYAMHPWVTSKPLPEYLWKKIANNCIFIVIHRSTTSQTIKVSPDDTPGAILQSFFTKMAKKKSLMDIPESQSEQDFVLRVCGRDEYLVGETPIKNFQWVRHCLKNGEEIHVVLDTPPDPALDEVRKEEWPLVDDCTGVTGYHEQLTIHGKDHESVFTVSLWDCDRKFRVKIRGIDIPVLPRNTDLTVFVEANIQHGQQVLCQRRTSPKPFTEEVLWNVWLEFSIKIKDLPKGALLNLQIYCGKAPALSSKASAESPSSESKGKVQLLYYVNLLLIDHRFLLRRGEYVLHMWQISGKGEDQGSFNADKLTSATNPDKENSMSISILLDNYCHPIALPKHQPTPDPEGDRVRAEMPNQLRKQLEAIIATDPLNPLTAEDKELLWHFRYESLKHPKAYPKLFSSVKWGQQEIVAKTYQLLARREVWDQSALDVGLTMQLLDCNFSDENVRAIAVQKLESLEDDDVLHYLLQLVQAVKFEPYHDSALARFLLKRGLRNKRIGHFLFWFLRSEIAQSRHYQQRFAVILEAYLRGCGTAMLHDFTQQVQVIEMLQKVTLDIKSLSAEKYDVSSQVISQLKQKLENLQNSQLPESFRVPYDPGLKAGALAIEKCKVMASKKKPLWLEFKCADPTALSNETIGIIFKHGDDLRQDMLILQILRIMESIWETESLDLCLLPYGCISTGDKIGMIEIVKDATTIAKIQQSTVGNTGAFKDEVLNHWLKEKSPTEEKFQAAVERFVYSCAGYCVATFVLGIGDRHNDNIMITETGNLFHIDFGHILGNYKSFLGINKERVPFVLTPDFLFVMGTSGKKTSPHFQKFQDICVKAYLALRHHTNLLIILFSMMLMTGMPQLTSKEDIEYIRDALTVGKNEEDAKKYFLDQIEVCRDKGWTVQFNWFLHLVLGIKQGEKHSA
Outline: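 Radiometric SPA in 20 mM MOPS pH 6.7, 10 mM MgCl2, 5 mM DTT, 0.03% CHAPS, 2% DMSO. Stopped with EDTA and WGA SPA beads for scintillation counting. IC50 fitted from % solvent-control activity versus log concentration.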

[3] = target: PI3Kδ (p110δ/p85α) Recombinant Human Protein (Homo sapiens (Human), UniProt O00329); experiment: PI3Kδ scintillation proximity assay; format: biochemical; conditions: 20 μM PIP2, 2 μM ATP, 3.4 nM PI3Kδ, 120 min, room temperature; read-out: PI3Kδ IC50
Sequence of PI3Kδ (p110δ/p85α) Recombinant Human Protein (O00329 whole entry): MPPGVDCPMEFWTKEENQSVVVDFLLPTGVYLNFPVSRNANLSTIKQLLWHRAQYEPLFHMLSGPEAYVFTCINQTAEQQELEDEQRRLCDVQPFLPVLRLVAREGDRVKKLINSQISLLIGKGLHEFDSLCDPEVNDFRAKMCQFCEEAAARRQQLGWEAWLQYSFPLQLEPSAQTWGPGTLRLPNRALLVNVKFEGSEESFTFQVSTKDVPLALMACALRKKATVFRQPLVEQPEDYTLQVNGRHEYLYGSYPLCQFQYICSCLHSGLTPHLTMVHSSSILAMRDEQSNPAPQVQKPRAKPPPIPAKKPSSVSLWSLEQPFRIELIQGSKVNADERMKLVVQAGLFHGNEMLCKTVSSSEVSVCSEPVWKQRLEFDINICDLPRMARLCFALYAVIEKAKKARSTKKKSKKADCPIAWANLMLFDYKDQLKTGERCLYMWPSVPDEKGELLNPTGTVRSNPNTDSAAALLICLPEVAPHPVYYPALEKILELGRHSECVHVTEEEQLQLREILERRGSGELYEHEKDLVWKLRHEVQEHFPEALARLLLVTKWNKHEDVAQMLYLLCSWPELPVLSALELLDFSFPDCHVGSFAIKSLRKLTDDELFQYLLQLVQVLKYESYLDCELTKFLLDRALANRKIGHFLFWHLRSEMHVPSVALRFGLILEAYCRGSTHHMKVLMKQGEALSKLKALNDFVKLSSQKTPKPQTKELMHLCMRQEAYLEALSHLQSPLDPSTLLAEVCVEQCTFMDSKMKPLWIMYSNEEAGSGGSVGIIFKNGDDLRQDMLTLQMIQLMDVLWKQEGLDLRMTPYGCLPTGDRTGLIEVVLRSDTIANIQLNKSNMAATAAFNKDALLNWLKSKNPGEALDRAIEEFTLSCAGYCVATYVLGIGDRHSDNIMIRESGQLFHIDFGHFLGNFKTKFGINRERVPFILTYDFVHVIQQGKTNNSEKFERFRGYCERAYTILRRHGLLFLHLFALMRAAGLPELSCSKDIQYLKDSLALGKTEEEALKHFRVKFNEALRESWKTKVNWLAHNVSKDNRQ
Sequence of PI3Kδ (p110δ/p85α) Recombinant Human Protein (P27986 whole entry partner): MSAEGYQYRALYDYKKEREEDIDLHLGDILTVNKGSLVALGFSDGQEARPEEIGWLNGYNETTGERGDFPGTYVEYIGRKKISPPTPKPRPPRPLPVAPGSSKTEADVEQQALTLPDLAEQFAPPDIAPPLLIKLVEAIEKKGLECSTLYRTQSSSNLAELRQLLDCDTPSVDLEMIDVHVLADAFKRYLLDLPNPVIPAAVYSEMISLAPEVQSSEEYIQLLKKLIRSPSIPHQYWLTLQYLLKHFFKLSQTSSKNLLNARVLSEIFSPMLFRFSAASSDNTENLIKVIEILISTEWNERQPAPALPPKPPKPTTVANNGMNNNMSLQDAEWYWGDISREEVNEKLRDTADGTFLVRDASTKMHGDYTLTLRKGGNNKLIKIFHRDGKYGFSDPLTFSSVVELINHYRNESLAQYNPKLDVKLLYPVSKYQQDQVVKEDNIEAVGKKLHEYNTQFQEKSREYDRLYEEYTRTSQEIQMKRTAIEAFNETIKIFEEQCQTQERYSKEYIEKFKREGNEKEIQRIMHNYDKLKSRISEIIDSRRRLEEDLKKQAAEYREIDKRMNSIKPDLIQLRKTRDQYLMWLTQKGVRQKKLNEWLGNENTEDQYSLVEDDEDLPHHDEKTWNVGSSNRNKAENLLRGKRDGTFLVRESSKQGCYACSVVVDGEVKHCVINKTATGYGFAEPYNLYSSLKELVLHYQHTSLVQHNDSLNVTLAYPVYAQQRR
Outline: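 Recombinant human p110δ/p85α was run at room temperature in 20 mM MOPS pH 6.7, 10 mM MgCl2, 5 mM DTT, 0.03% CHAPS, 2% DMSO. Substrates were 20 µM PIP2 and 2 µM ATP with [γ-33P]ATP. Product was captured overnight on WGA SPA beads and counted by scintillation; IC50 fitted from percent of solvent control versus log concentration.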

[4] = Homo sapiens, THP-1, THP-1 cells

Structure (SMILES) | IC50 [1, 4] [nM] | IC50 [2] [nM] | IC50 [3] [nM] | IC50 ([1]; Homo sapiens, THP-1 cells) [nM] | IC50 ([1]; THP-1 cells) [nM]
Cc1ccc(C(C)(O)C(F)(F)F)cc1-c1cnc2c(N)nc(C3CC(CO)C3)cn12 (single isomer, unassigned) [Example 207, 2-(3-(8-amino-6-(3-(hydroxymethyl)cyclobutyl)imidazo[1,2-a]pyrazin-3-yl)-4-methylphenyl)-1,1,1-trifluoropropan-2-ol trifluoroacetate] | < 100 | < 100 | < 100 | – | –
Cc1ccc(C(O)(C2CC2)C(F)(F)F)cc1-c1cnc2c(N)nc(C(F)(F)F)cn12 (stereo not drawn) [Example 19, 1-(3-(8-Amino-6-(trifluoromethyl)imidazo[1,2-a]pyrazin-3-yl)-4-methylphenyl)-1-cyclopropyl-2,2,2-trifluoroethan-1-ol] | > 1000 | < 100 | 100 to 500 | – | –
Cc1ccc(C(C)(O)C(F)F)cc1-c1cnc2c(N)nc(C3CC3CO)cn12 (single isomer, unassigned) [Example 79, 2-(3-(8-Amino-6-(2-(hydroxymethyl)cyclopropyl)imidazo[1,2-a]pyrazin-3-yl)-4-methylphenyl)-1,1-difluoropropan-2-ol] | 100 to 500 | < 100 | 500 to 2000 | – | –
[2H]C([2H])([2H])c1ccc(C(C)(O)C(F)(F)F)cc1-c1cnc2c(N)nc(C(C)(C)O)cn12 (single isomer, unassigned) [Example 253, 2-(3-(8-Amino-6-(2-hydroxypropan-2-yl)imidazo[1,2-a]pyrazin-3-yl)-4-(methyl-d3)phenyl)-1,1,1-trifluoropropan-2-ol trifluoroacetate salt] | 100 to 500 | < 100 | 100 to 500 | – | –
Cc1ccc(C(C)(O)C(F)(F)F)cc1-c1cnc2c(N)nc(-c3ccnc(CO)c3)cn12 (single isomer, unassigned) [Example 11, 2-(3-(8-amino-6-(2-(hydroxymethyl)pyridin-4-yl)imidazo[1,2-a]pyrazin-3-yl)-4-methylphenyl)-1,1,1-trifluoropropan-2-ol] | 100 to 500 | < 100 | < 100 | – | –
[2H]C([2H])([2H])n1nccc1-c1cn2c(-c3cc(C(C)(O)C(F)F)ccc3C)cnc2c(N)n1 (single isomer, unassigned) [Example 25, 2-(3-(8-Amino-6-(1-(methyl-d3)-1H-pyrazol-5-yl)imidazo[1,2-a]pyrazin-3-yl)-4-methylphenyl)-1,1-difluoropropan-2-ol trifluoroacetate salt] | 100 to 500 | < 100 | 100 to 500 | – | –
[2H]C([2H])([2H])c1ccc(C(C)(O)C(F)(F)F)cc1-c1cnc2c(N)nc(-c3cnn(C(CC#N)C4CCC4)c3)cn12 (stereo not drawn) [Example 86, 3-(4-(8-Amino-3-(2-(methyl-d3)-5-(1,1,1-trifluoro-2-hydroxypropan-2-yl)phenyl)imidazo[1,2-a]pyrazin-6-yl)-1H-pyrazol-1-yl)-3-cyclobutylpropanenitrile, trifluoroacetate] | 100 to 500 | < 100 | 100 to 500 | – | –
[2H]C([2H])([2H])c1ccc(C(C)(O)C(F)(F)F)cc1-c1cnc2c(N)nc(-c3ccc(C(C)O)nc3)cn12 (stereo not drawn) [Example 267, 2-(3-(8-Amino-6-(6-(1-hydroxyethyl)pyridin-3-yl)imidazo[1,2-a]pyrazin-3-yl)-4-(methyl-d3)phenyl)-1,1,1-trifluoropropan-2-ol] | < 100 | < 100 | < 100 | – | –
Cc1ccc(C(C)(O)C(F)(F)F)cc1-c1cnc2c(N)nc(C(=O)N[C@@H](B(O)O)C3CCC3)cn12 (single isomer, unassigned) [Example 117] | > 1000 | < 100 | 500 to 2000 | – | –
Cc1ccc(C(O)(CNC(=O)CF)C(F)(F)F)cc1-c1cnc2c(N)nc(C(F)(F)F)cn12 (stereo not drawn) [Example 214, N-(2-(3-(8-amino-6-(trifluoromethyl)imidazo[1,2-a]pyrazin-3-yl)-4-methylphenyl)-3,3,3-trifluoro-2-hydroxypropyl)-2-fluoroacetamide trifluoroacetate salt] | – | < 100 | 100 to 500 | 100 to 500 | –
Cc1ccc(C(C)(O)C(F)F)cc1-c1cnc2c(N)nc(-c3ccn(C)n3)cn12 (stereo not drawn) [Example 43, 2-(3-(8-Amino-6-(1-methyl-1H-pyrazol-3-yl)imidazo[1,2-a]pyrazin-3-yl)-4-methylphenyl)-1,1-difluoropropan-2-ol] | 500 to 1000 | < 100 | 100 to 500 | – | –
Cc1nc(N)c2ncc(-c3cc(C(C)(O)C(F)(F)F)ccc3C)n2n1 (stereo not drawn) [Example 2, 2-(3-(4-Amino-2-methylimidazo[2,1-f][1,2,4]triazin-7-yl)-4-methylphenyl)-1,1,1-trifluoropropan-2-ol] | 500 to 1000 | < 100 | 500 to 2000 | – | –
COC(=O)c1cn2c(-c3cc(C(C)(O)C(F)(F)F)ccc3C)cnc2c(N)n1 (stereo not drawn) [Example 8, Methyl 8-amino-3-(2-methyl-5-(1,1,1-trifluoro-2-hydroxypropan-2-yl)phenyl)imidazo[1,2-a]pyrazine-6-carboxylate] | 500 to 1000 | < 100 | 500 to 2000 | – | –
Cc1ccc(C(C)(O)C(F)(F)F)cc1-c1cnc2c(N)nc(C3CC(CO)C3)cn12 (single isomer, unassigned) [Example 208, 2-(3-(8-amino-6-(3-(hydroxymethyl)cyclobutyl)imidazo[1,2-a]pyrazin-3-yl)-4-methylphenyl)-1,1,1-trifluoropropan-2-ol trifluoroacetate] | – | < 100 | < 100 | – | < 100
Cc1ccc(C(C)(O)C(F)F)cc1-c1cnc2c(N)nc(-n3cncn3)cn12 (stereo not drawn) [Example 49, 2-(3-(8-Amino-6-(1H-1,2,4-triazol-1-yl)imidazo[1,2-a]pyrazin-3-yl)-4-methylphenyl)-1,1-difluoropropan-2-ol] | 100 to 500 | < 100 | 100 to 500 | – | –
Cc1ccc(C(C)(O)C(F)F)cc1-c1cnc2c(N)nc(-c3ccnn3C)cn12 (single isomer, unassigned) [Example 29, 2-(3-(8-Amino-6-(1-methyl-1H-pyrazol-5-yl)imidazo[1,2-a]pyrazin-3-yl)-4-methylphenyl)-1,1-difluoropropan-2-ol 1.2 trifluoroacetate salt] | 100 to 500 | < 100 | 100 to 500 | – | –
Cc1ccc(C(C)(O)C(F)F)cc1-c1cnc2c(N)nc(-c3cc(C(N)=O)ccc3F)cn12 (stereo not drawn) [Example 31, 3-(8-Amino-3-(5-(1,1-difluoro-2-hydroxypropan-2-yl)-2-methylphenyl)imidazo[1,2-a]pyrazin-6-yl)-4-fluorobenzamide] | 100 to 500 | < 100 | 100 to 500 | – | –
Cc1ccc(C(C)(O)C(F)F)cc1-c1cnc2c(N)nc(-c3ccnn3C)nn12 (single isomer, unassigned) [Example 51, 2-(3-(4-Amino-2-(1-methyl-1H-pyrazol-5-yl)imidazo[2,1-f][1,2,4]triazin-7-yl)-4-methylphenyl)-1,1-difluoropropan-2-ol trifluoroacetate salt] | < 100 | < 100 | < 100 | – | –
Cc1ccc(C(O)(C(N)=O)C(F)(F)F)cc1-c1cnc2c(N)nc(C(F)(F)F)cn12 (stereo not drawn) [Example 82, 2-(3-(8-Amino-6-(trifluoromethyl)imidazo[1,2-a]pyrazin-3-yl)-4-methylphenyl)-3,3,3-trifluoro-2-hydroxypropanamide] | < 100 | < 100 | < 100 | – | –
Cc1ccc(C(C)(O)C(F)F)cc1-c1cnc2c(N)nc(-c3ccc(CO)nc3)cn12 (stereo not drawn) [Example 46, 2-(3-(8-Amino-6-(6-(hydroxymethyl)pyridin-3-yl)imidazo[1,2-a]pyrazin-3-yl)-4-methylphenyl)-1,1-difluoropropan-2-ol trifluoroacetate] | < 100 | < 100 | 100 to 500 | – | –
